Results taken from patent publication US20240287048A1, “SUBSTITUTED ACYL SULFONAMIDES FOR TREATING CANCER” (The Broad Institute, Inc., priority 2020, published 2024).

Key:
Format in all cases: cell-based
ZR-75-1 cells = test: Proliferation assay in ZR-75-1 cells; details: Homo sapiens, 144 h, Alamar Blue, read-out: ZR75-1 proliferation assay, EC50[M] (arithmetic mean)
In short: (§1)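 KAT6A-amplified ZR-75-1 cells (RPMI 1640, 2.5% FBS) and KAT6A-low MDA-MB-436 cells (DMEM/Ham's F12, 2.5% FBS) were seeded at 3000 cells/well. Treatment lasted 144 h at 37 °C, 5% CO2, in triplicate. Viability was read by Alamar Blue (2 h) fluorescence at […].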

[1] = test system: Salmonella tester strain TA98; test: Bacterial reverse gene mutation test Ames MPF Penta I, TA98
From the text: (§2) The employed commercial assay Ames MPF Penta I comprises the histidine auxotrophic Salmonella tester strains TA98, TA100, TA1535, TA1537 and two tryptophan auxotrophic tester strains E. coli wp2 (E. coli wp2 [pKM101] and E. coli wp2 uvrA, combined exposure). These strains meet the requirements of the OECD guideline 471 for testing chemicals.
(§3) Bacterial strains were exposed to various concentrations of the test compounds in a histidine (His) or tryptophane (Trp) deficient medium. As recommended by ICH S2(R1) guideline, the test was conducted in two assay conditions, with and without addition of microsomal enzymes (S9 mix), taking the potential formation of DNA reactive metabolites via xenobiotic biotransformation into account.
(§4) The potential of the test compound to induce gene mutations is assessed by comparing the control with the test compounds treated bacterial cultures.

MDA-MB-436 cells = test: Proliferation assay in MDA-MB-436 cells (negative control cell line); details: Homo sapiens, 144 h, Alamar Blue, read-out: MDA-MB-436 proliferation assay, EC50[M] (arithmetic mean)
In short: as §1

[2] = test system: ESR1 transcription in MVLN cells; test: Repression of ESR1 transcription, MVLN luciferase reporter assay; details: Homo sapiens, luciferase signal after 24 h, read-out: MVLN reporter assay, IC50[M] (arithmetic mean)
In short: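 MVLN cells stably carry an ER-responsive vitellogenin A2 element driving luciferase. After 24 h of compound treatment, luciferase was read in lysate as the measure of ERα transcription. Alamar Blue fluorescence (530/590 nm, 2 h) was read first to control for cell loss; samples were run in duplicate.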

[3] = test system: E. coli wp2 (E. coli wp2 [pKM101] and E. coli wp2 uvrA, combined exposure); test: Bacterial reverse gene mutation test Ames MPF Penta I, E. coli wp2
From the text: as §2, §3, §4

[4] = test system: Salmonella tester strain TA1535; test: Bacterial reverse gene mutation test Ames MPF Penta I, TA1535
From the text: as §2, §3, §4

O=C(NS(=O)(=O)c1ccccc1-c1ccccc1)c1cc2ccc(C3CC3)cc2o1 [Example 16, N-([1,1′-biphenyl]-2-sulfonyl)-6-cyclopropyl-1-benzofuran-2-carboxamide]
EC50 (ZR-75-1 cells): 5.93e-06 M
Result of the bacterial reverse gene mutation test Ames MPF Penta I, TA98 ([1]; with addition of S9 mix): negative
Result of the bacterial reverse gene mutation test Ames MPF Penta I, TA98 ([1]; without addition of S9 mix): negative
EC50 (MDA-MB-436 cells): > 2e-05 M
IC50 [2]: 1.02e-06 M
Result of the bacterial reverse gene mutation test Ames MPF Penta I, E. coli wp2 ([3]; with addition of S9 mix): negative
Result of the bacterial reverse gene mutation test Ames MPF Penta I, E. coli wp2 ([3]; without addition of S9 mix): negative
Result of the bacterial reverse gene mutation test Ames MPF Penta I, TA1535 ([4]; with addition of S9 mix): negative
Result of the bacterial reverse gene mutation test Ames MPF Penta I, TA1535 ([4]; without addition of S9 mix): negative

CCOc1ccccc1S(=O)(=O)NC(=O)c1cc2ccc(C(C)C)cc2o1 [Example 55, N-(2-Ethoxybenzenesulfonyl)-6-(propan-2-yl)-1-benzofuran-2-carboxamide]
EC50 (ZR-75-1 cells): 1.27e-05 M
Result of the bacterial reverse gene mutation test Ames MPF Penta I, TA98 ([1]; with addition of S9 mix): negative
Result of the bacterial reverse gene mutation test Ames MPF Penta I, TA98 ([1]; without addition of S9 mix): negative
EC50 (MDA-MB-436 cells): > 2e-05 M
IC50 [2]: 1.34e-06 M
Result of the bacterial reverse gene mutation test Ames MPF Penta I, E. coli wp2 ([3]; with addition of S9 mix): negative
Result of the bacterial reverse gene mutation test Ames MPF Penta I, E. coli wp2 ([3]; without addition of S9 mix): negative
Result of the bacterial reverse gene mutation test Ames MPF Penta I, TA1535 ([4]; with addition of S9 mix): negative
Result of the bacterial reverse gene mutation test Ames MPF Penta I, TA1535 ([4]; without addition of S9 mix): negative
